“Also recorded” adds a separate entry of the source.
Columns and labels:
P19 cells [1] = experiment: Cardiac differentiation of P19 cell aggregates, scored by beating cell colonies; format: cell-based, mouse; conditions: for day by which beating cell colonies were present in all 24 independently growing cultures: aggregates treated 4 days with 10^−7 M OT or 0.5% DMSO, 24-well plate
Excerpt: P19 cells were propagated and differentiated according to the procedures of Rudnicki and McBurney (28), with minor modifications. Undifferentiated cells were propagated in complete medium containing α-modified Eagle's minimal essential medium (α-MEM; GIBCO-BRL Burlington, Ontario, Canada) supplemented with 2.5% heat-inactivated fetal bovine serum, 7.5% heat-inactivated donor bovine serum (Cansera International, Rexdale, Ontario, Canada), and the antibiotics (GIBCO-BRL) penicillin G (50 U/ml) and streptomycin (50 μg/ml). The cultures were maintained at 37° C. in a humidified atmosphere of 5% CO2 and passaged every 2 days. The general protocol used for differentiation of P19 cells is depicted in FIG. 1.
(§1) Briefly, 0.25×10^6 cells were allowed to aggregate for 4 days in non-adhesive bacteriological grade petri dishes (6-cm diameter) containing 5 ml complete medium, in the presence of 0.5% (v/v) DMSO (Sigma Chemical Co., St. Louis, Mo.). At day 2 of aggregation, the inducing culture medium was replenished. At day 4, aggregates were transferred to tissue culture grade vessels (10-cm diameter dishes or 24/48-well plates), and cultured in complete medium in the absence of differentiation-inducing agent. Aggregation was also done in the absence of DMSO, and in the presence of 10^−7 M OT and/or 10^−7 OTA ([d(CH2)5^1,Tyr(Me)^2,Thr^4,Orn^8,Tyr-NH2^9]-vasotocin), both from Peninsula Laboratories Inc. (San Carlos, Calif.). The cell populations were analyzed at days 10-14 of the entire differentiation protocol, at a time cardiac cells normally beat synchronously.
P19 cells were subjected to the cardiac differentiation protocol depicted in Example 1, except that different concentrations of OT were used during the four days of aggregation. At day 4, aggregates were transferred to 24-well plates and scored for the appearance of beating cell colonies. In addition, cells were collected at day 14 for analysis of OTR or OT expression by RT-PCR. Cell aggregates were also treated with RA and/or T3.

P19 cells [2] = experiment: Mean diameter of P19 cell aggregates; format: cell-based, mouse; conditions: data not shown
Experimental: as §1

P19 cells [3] = experiment: OT production by induced P19 cells (RIA); format: cell-based, mouse; conditions: day 14, 4 h in serum-free medium
Experimental: P19 cells induced with DMSO or OT were cultured until day 14 in absence of inducer. Cells were washed carefully with PBS and incubated for 4 h in serum-free α-MEM supplemented with protease inhibiors (aprotinin, 30 μg/mL and soybean trypsin inhibitor (SBTI), 100 μg/mL). Cells and media were collected, extracted on Sep-Pak C18-cartridges (Waters Canada, Mississauga, Ontario), lyophilized, resuspended in a minimal volume of α-MEM and assayed by RIA as described (8). RIA was also done on undiluted serum combination used for P19 cell culture (1 part of fetal bovine serum and 3 parts of donor bovine serum).

ANP mRNA = experiment: RT-PCR analysis of ANP gene transcript in P19 cultures; format: cell-based, mouse; conditions: for ANP mRNA level compared to undifferentiated cells: day 14 of differentiation
Experimental: Total cellular RNA was extracted with TRIzol® Reagent (Invitrogen Life Technologies, Burlington, Ontario, Canada), and poly(A)^+mRNA was affinity purified from 200 μg of total RNA onto Oligotex® mRNA columns (Qiagen, Mississauga, Ontario, Canada), as per the manufacturers' instructions. […] Invitrogen). First-strand cDNA (5 μl) was then used for PCR amplification with OTR, ANP or GAPDH exon-specific oligonucleotide primers in a Robocycler Gradient 40 thermocycler (Stratagene, La Jolla, Calif.). Sequences of mouse OTR and ANP genes have been described (26, 34). Conditions for RT-PCR analysis of mouse OTR were adapted from Wagner et al. (6, 7). For all PCR studies the number of cycles used was within the linear range of amplification. The OTR sense and antisense primers were respectively the 22-bp [NT] ID NO:9) and the 23-bp [NT] ID NO:10). […] The ANP antisense and sense primers were respectively the 24-bp [NT] ID NO:11) and the 20-bp [NT] ID NO:12). […] The amplification of GAPDH mRNA, a constitutively and ubiquitously expressed gene, served as an internal standard for RT-PCR analysis. The 23-bp antisense primer [NT] ID NO:13) and the 23-bp sense primer [NT] ID NO:14) were used.

P19 cells [4] = conditions: cited from earlier work
[5] = tested on: sarcomeric MHC and DHPR-alphal; experiment: Immunocytofluorescence of cardiac muscle markers in P19 cells; format: cell-based, mouse; conditions: for MHC and DHPR-alphal immunoreactive foci: aggregates treated day 0-4, stained day 14
Experimental: (§2) For immunocytofluorescence studies, cells were grown onto glass coverslips coated with 0.1% gelatin. They were then fixed by 20-min incubation in PBS containing 4% paraformaldehyde, rinsed in PBS and stored at 4° C. in this buffer until used. All subsequent steps of permeabilization, washing and incubation with antibodies were performed at room temperature. Fixed cells were permeabilized for 10 min in PBS containing 0.005% saponin, blocked for 60 min in PBS-BSA-saponin (PBS containing 1% bovine serum albumin and 0.005% saponin), incubated for 45 min with the primary antibody diluted 1/50 and for 45 min with a fluorescein-conjugated swine anti-goat IgG antibody (Biosource International, Camarillo, Calif.) diluted 1/1000. PBS-BSA-saponin was used for washing between incubations and antibodies were diluted in the same buffer but containing 1.5% normal swine serum (Jackson Immuno Research Laboratories Inc., West Grove, Pa.). Coverslips were mounted in PBS containing 50% glycerol, and immediately examined under the microscope. The primary antibodies were all from Santa Cruz Biotechnology, Inc. (Santa Cruz, Calif.) and produced in goat: antibody C-20 against OT receptor (OTR), antibody K-16 against sarcomeric myosin heavy chain (MHC), and antibody N-19 against dihydropyridine receptor-alphal (DHPR-alphal).

OTR = OTR expression in P19 cells (immunocytochemistry, Western blot, RT-PCR); format: cell-based, mouse; conditions: for OTR expression (protein and mRNA) after treatment: DMSO 0.5%, OT 10^−7 M or OTA 10^−7 M alone; for early OTR induction (RT-PCR): second day of differentiation protocol, preliminary results
Experimental: as §2
Total cellular RNA was extracted with TRIzol® Reagent (Invitrogen Life Technologies, Burlington, Ontario, Canada), and poly(A)^+mRNA was affinity purified from 200 μg of total RNA onto Oligotex® mRNA columns (Qiagen, Mississauga, Ontario, Canada), as per the manufacturers' instructions. First-strand cDNA was synthesized in a final volume of 40 μl containing first-strand buffer, 3 μg of cellular RNA, 4 μl of hexanucleotide primers (Amersham-Pharmacia, Baie d'Urfé, Quebec, Canada), and avian myeloblastosis virus reverse transcriptase (12 units/μg RNA; Invitrogen). First-strand cDNA (5 μl) was then used for PCR amplification with OTR, ANP or GAPDH exon-specific oligonucleotide primers in a Robocycler Gradient 40 thermocycler (Stratagene, La Jolla, Calif.). Sequences of mouse OTR and ANP genes have been described (26, 34). Conditions for RT-PCR analysis of mouse OTR were adapted from Wagner et al. (6, 7). For all PCR studies the number of cycles used was within the linear range of amplification. The OTR sense and antisense primers were respectively the 22-bp 5′-[…]-3′ (SEQ ID NO:9) and the 23-bp 5′-[…]-3′ (SEQ ID NO:10). Amplification was performed over 32 cycles, each involving 1 min at 94° C., 1.5 min at 62° C. and 1.5 min at 72° C., and was terminated by a 5-min final extension at 72° C. The ANP antisense and sense primers were respectively the 24-bp 5′-[…]-3′ (SEQ ID NO:11) and the 20-bp 5′-[…]-3′ (SEQ ID NO:12). Amplification was performed over 25-30 cycles, each involving 1 min at 94° C., 1 min at 65° C. and 3 min at 72° C., and was terminated by a 5-min final extension at 72° C. The amplification of GAPDH mRNA, a constitutively and ubiquitously expressed gene, served as an internal standard for RT-PCR analysis. The 23-bp antisense primer 5′-[…]-3′ (SEQ ID NO:13) and the 23-bp sense primer 5′-[…]-3′ (SEQ ID NO:14) were used. Amplification was performed over 23 cycles, each involving 1 min at 94° C., 1.5 min at 59° C. and 2 min at 72° C.
Cells were collected by scraping, homogenized in sucrose buffer (20 mM Hepes/Tris, pH 7.4, containing 250 mM sucrose and 20 μg/ml of the protease inhibitor phenylmethylsulfonyl fluoride), then centrifuged at 3000 g for 10 min at 4° C. to remove debris. The supernatants were centrifuged at 100 000 g for 45 min at 4° C., and the pellets were resuspended in sucrose buffer for analysis of protein content by a modified Bradford assay (30). […]

[6] = biological target: oxytocin receptor (OTR) of P19 mouse embryonal carcinoma cells (mouse) (UniProt P97926); experiment: cell-based or functional assay; conditions: scale: cultures with beating colonies
P19 cells [7] = experiment: Rhodamine123 retention in P19 cultures; format: cell-based, mouse; conditions: day 10 of differentiation, p<0.001
Experimental: For morphological examination, cells were grown directly onto the plastic surface of tissue culture vessels. For staining with rhodamine^123 (Sigma), day-4 aggregates were distributed in 24-well culture plates and grown until day 8. Then, dye was added to the culture medium at a final concentration of 1 μg/ml for 45 min, and afterwards, the cells were washed extensively with phosphate-buffered saline (PBS) and cultured for 48 h in the absence of the dye. Dye retained by cells in each well was measured by a fluorescence microplate reader (SPECTRA Max Gemini®, Molecular Devices, Sunnyvale, Calif.) at 505 nm for excitation and 534 nm for emission.

Chain of oxytocin receptor (OTR) of P19 mouse embryonal carcinoma cells (mouse) (P97926 whole entry): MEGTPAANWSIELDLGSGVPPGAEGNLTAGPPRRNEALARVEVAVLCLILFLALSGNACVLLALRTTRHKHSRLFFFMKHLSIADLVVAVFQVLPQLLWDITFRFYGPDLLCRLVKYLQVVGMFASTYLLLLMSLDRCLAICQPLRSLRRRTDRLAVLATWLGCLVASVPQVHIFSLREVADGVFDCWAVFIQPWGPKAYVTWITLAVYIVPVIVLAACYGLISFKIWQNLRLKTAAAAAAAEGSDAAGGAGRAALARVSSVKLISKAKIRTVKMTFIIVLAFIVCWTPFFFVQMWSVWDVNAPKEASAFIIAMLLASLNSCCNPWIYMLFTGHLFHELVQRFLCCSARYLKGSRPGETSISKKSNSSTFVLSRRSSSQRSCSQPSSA

For C[S+](C)[O-] [DMSO], which “day by which beating cell colonies were present in all 24 independently growing cultures” value (P19 cells [1]) is on record?
The value was 12 days.

And the “reduction of mean aggregate diameter versus untreated counterparts” value (P19 cells [2])?
Its value is 1.5 fold.

What about the “OT release by induced P19 cells” value (P19 cells [3]) of the same compound?
The value was “release OT in their culture medium”.

What about the “ANP mRNA level compared to undifferentiated cells” value (ANP mRNA) of the same compound?
The value was “at similar level”.

And the “efficiency of cardiac differentiation” value (P19 cells [4]; DMSO-induced)?
Its value is ≤ 15%.

And the “MHC and DHPR-alphal immunoreactive foci” value [5]?
The value was “numerous, intense, immunoreactive foci”.

What about the “OTR expression (protein and mRNA) after treatment” value (from here on “OTR expression (protein and mRNA)”) (OTR; day 14) of the same compound?
Its value is “increased OTR expression”.

With N[C@@H](Cc1cc(I)c(Oc2ccc(O)c(I)c2)c(I)c1)C(=O)O [T3, triiodothyronine] as the compound, how does the “optimal effective concentration for cardiomyogenic differentiation of P19 cells” value (P19 cells [4]; Rodriguez et al., 1994) read?
The value was 30 nM.

Which “effect of OTA on T3-induced cardiac differentiation” value (P19 cells [1]; 30 nM T3 + 10^−7 M OTA) does the source give for “[d(CH2)5^1,Tyr(Me)^2,Thr^4,Orn^8,Tyr-NH2^9]-vasotocin [OTA]” here?
Its value is “abolished cardiac differentiation induced by T3; also recorded: completely inhibits P19 cell differentiation into cardiomyocytes”.

What about the “effect of OTA on DMSO-induced cardiac differentiation (beating cell colonies)” value (P19 cells [1]; 10^−7 M OTA + 0.5% DMSO) of the same compound?
Its value is “abolished the cardiogenic action of DMSO; also recorded: completely inhibits P19 cell differentiation into cardiomyocytes”.

What about the “beating cells with OTA in combination with OT” value (P19 cells [1]; 10^−7 M OTA + 10^−7 M OT) of the same compound?
Its value is “no beating cells were seen”.

And the “beating cells with OTA in place of OT” value (P19 cells [1]; 10^−7 M OTA alone)?
Its value is “no beating cells were seen”.

What about the “effect of OTA on RA-induced cardiac differentiation” value (P19 cells [1]; RA 10^−7 M + OTA 10^−7 M) of the same compound?
Its value is “completely inhibits RA-induced cardiac differentiation; also recorded: completely inhibits P19 cell differentiation into cardiomyocytes”.

And the “effect of OTA on DMSO-induced ANP expression” value (ANP mRNA; DMSO + OTA day 0-4, day 14)?
The value was “not statistically significant”.

And the “effect of OTA on OT-induced ANP expression” value (ANP mRNA; OT + OTA day 0-4, day 14, p<0.05)?
The value was “prevented OT-induced upregulation of ANP expression”.

And the “effect of OTA on OT-induced OTR upregulation” value (OTR; OT 10^−7 M + OTA 10^−7 M, day 14)?
Its value is “inhibited OT-induced OTR upregulation”.

What about the “OTR expression (protein and mRNA)” value (OTR; day 14) of the same compound?
The value was “did not upregulate OTR expression by itself”.

And the “early OTR induction (RT-PCR)” value (OTR)?
Its value is “no effect on OTR expression”.

For “oxytocin (from UniProt P01178 20-28) (peptide)”, which production of beating cell colonies (P19 cardiomyocyte differentiation, 24-well plate) [6] is on record?
Its production of beating cell colonies (P19 cardiomyocyte differentiation, 24-well plate) is 24.

Which “OT concentration range over which differentiation into beating cardiomyocytes is concentration-dependent” value (P19 cells [1]; 4 days of aggregation with different OT concentrations) does the source give for oxytocin [OT] here?
Its value is 10^−6 to 10^−9 M.

And the “formation of rhythmically-beating cells” value (P19 cells [1]; P19 cell aggregates treated day 0-4 with 10^−7 M OT)?
Its value is “induced the formation of rhythmically-beating cells”.

What about the “day by which beating cell colonies were present in all 24 independently growing cultures” value (P19 cells [1]) of the same compound?
The value was 8 days.

And the “cardiac differentiation at the OT concentration supplied by serum in culture medium” value (P19 cells [1]; final OT concentration of 10^−12 M)?
The value was “not sufficient to induce cardiac differentiation”.

What about the “rhodamine123 retention, OT compared with DMSO” value (P19 cells [7]) of the same compound?
Its value is “significantly higher after OT than DMSO treatment”.

What about the “reduction of mean aggregate diameter versus untreated counterparts” value (P19 cells [2]) of the same compound?
The value was 1.5 fold.

And the “OT release by induced P19 cells” value (P19 cells [3])?
The value was “release OT in their culture medium”.

And the “ANP mRNA level compared to undifferentiated cells” value (ANP mRNA)?
The value was “significantly upregulated”.

What about the “MHC and DHPR-alphal immunoreactive foci” value [5] of the same compound?
Its value is “numerous, intense, immunoreactive foci”.

And the “6-day versus 4-day OT treatment of aggregates (myocyte immunological markers)” value ([5]; not presented)?
Its value is “no difference with the 4-day treatment”.

What about the “OTR expression (protein and mRNA)” value (OTR; day 14) of the same compound?
The value was “increased OTR expression”.

What about the “OTR mRNA expression versus OT concentration” value (OTR; differentiated populations at day 14) of the same compound?
The value was “concentration-dependent”.

What about the “early OTR induction (RT-PCR)” value (OTR) of the same compound?
Its value is “most potent OTR inducer”.

Source: US20060205636A1, “Oxytocin as cardiomyogenesis inducer and uses thereof” (priority 2002, published 2006)
